Values after ≈ are worked out from the molar mass of the structure shown. Counter-ions that a name gives are not always drawn. Like-named read-outs stand apart in the source and are kept apart here.
How the values were obtained:
[1] = system: MRSA-337371; assay: Post-antibiotic effect (PAE) test, viable counting; type: cell-based, methicillin-resistant Staphylococcus aureus; conditions: 1 h exposure; for PAE values, concentration dependence: 1×, 2×, 4× and 8× MIC
Description: The PAE of EDT against MRSA-337371 was determined using a standard viable counting method. We selected 1 × , 2 × , 4 × and 8 × MICs of EDT and tiamulin (0.0313 and 0.5 μg/mL, respectively), to conduct PAE test on MRSA strains. The strains (1 × 10^5 CFU/mL) were placed in MHB broth test tubes containing the above four concentrations of EDT and tiamulin, respectively, and cultured in a shaking bed at 37 °C for 1 h, followed by centrifuging for 10 min at 4000 r/min. The supernatants were discarded and the precipitations were dissolved with 2 mL normal saline to centrifuge. The same procedure was repeated three times. The final bacterial precipitates were taken and cultured in MHB broth with the initial concentration of 5.5 Log CFU/mL at 37 °C in a shaking bed. Samples were then taken at 0, 1, 2, 3, 4, 5, 6, 8, 12, 18 and 24 h to dilute 10–100,000 times and the 10 μL dilutions were evenly smear on MHA plate medium to culture at 37 °C for 48 h. Finally, the average numbers of colonies on the plates were obtained and the PAE values were calculated as hour using equation PAE = T − C, in which T was the time required for the increase of 1 log10 CFU/mL after the removal of drugs and C was the time required for the number of MRSA in the control tube to increase by 1 log10 CFU/mL. Experiments were performed in triplicate.

[2] = system: MRSA-337371; assay: microbe, parasite or virus in culture; type: cell-based, methicillin-resistant Staphylococcus aureus; conditions: for MIC: Staphylococcus aureus, MRSA; for sensitivity of MRSA after removing drugs: after removing drugs and culturing for additional 10 generations
Description: We performed resistance induction tests on EDT and tiamulin which was used as a referent drug. […] Finally, MRSA was cultured for 30 generations with the same procedure. At the 31st generation, drugs were removed until 40th generation and MICs were determined in each generation.

[3] = system: GFP expression in S. aureus ATCC 29,213; assay: Green fluorescent protein (GFP) inhibition assay; type: cell-based, Staphylococcus aureus; conditions: 1 and 4 μM, co-incubation 4 h, fluorescence microscopy
Description: The inhibition assay against GFP expression was performed according to our previous report[41] with minor modification. Plasmids carried erythromycin resistant genes were labeled with GFP and electrotransformed into S. aureus. After screenings using erythromycin, S. aureus strain expressing GFP was then obtained and grown to mid-logarithmic phase, followed by collecting centrifugally and re-suspending with PBS buffer. The obtained suspensions were co-incubated with EDT and tiamulin with the final concentrations of 1 and 4 μM, respectively, for 4 h at 37 °C. The cells were subsequently collected by centrifugation to perform imaging using fluorescence microscopy after re-suspending with PBS buffer.

[4] = Cytotoxicity assay (CCK-8), HepG2; type: cell-based; conditions: human, HepG2 cells; for viability at 6 h, 100 µM: HepG2, 100 μM; for viability at 6 h, 100 µM / viability at 6 h, 200 µM: read-out: cell viability; for viability at 6 h, 200 µM: HepG2, 200 μM
Description: Cytotoxicity of EDT and tiamulin was studied against human hepatocellular carcinoma cells (HepG2) and human embryonic kidney 293T (HEK293T) cells following a protocol as published in our earlier reports[41],[42]. Cells were counted and inoculated into 96-well plates with approximately10^5 cells density for incubating 24 h at 37 °C. […] The same procedure was repeated three times. The percentages of cell viability were calculated by the formula: Cell viability (%) = [Asample ‒ Anegative]/[Apositve ‒ Anegative] × 100%.

[5] = 24 h, read-out: MIC in the resistance development study, day 1
[6] = 48 h, read-out: MIC in the resistance development study, day 2
[7] = 72 h, read-out: MIC in the resistance development study, day 3
[8] = 96 h, read-out: MIC in the resistance development study, day 4
[9] = 120 h, read-out: MIC in the resistance development study, day 5
[10] = 144 h, read-out: MIC in the resistance development study, day 6
[11] = 168 h, read-out: MIC in the resistance development study, day 7
[12] = 192 h, read-out: MIC in the resistance development study, day 8
[13] = 216 h, read-out: MIC in the resistance development study, day 9
[14] = 240 h, read-out: MIC in the resistance development study, day 10
[15] = 264 h, read-out: MIC in the resistance development study, day 11
[16] = 288 h, read-out: MIC in the resistance development study, day 12
[17] = 312 h, read-out: MIC in the resistance development study, day 13
[18] = 336 h, read-out: MIC in the resistance development study, day 14
[19] = 360 h, read-out: MIC in the resistance development study, day 15
[20] = 384 h, read-out: MIC in the resistance development study, day 16
[21] = 408 h, read-out: MIC in the resistance development study, day 17
[22] = 432 h, read-out: MIC in the resistance development study, day 18
[23] = 456 h, read-out: MIC in the resistance development study, day 19
[24] = 480 h, read-out: MIC in the resistance development study, day 20
[25] = 504 h, read-out: MIC in the resistance development study, day 21
[26] = 528 h, read-out: MIC in the resistance development study, day 22
[27] = 552 h, read-out: MIC in the resistance development study, day 23
[28] = 576 h, read-out: MIC in the resistance development study, day 24
[29] = 600 h, read-out: MIC in the resistance development study, day 25
[30] = 624 h, read-out: MIC in the resistance development study, day 26
[31] = 648 h, read-out: MIC in the resistance development study, day 27
[32] = 672 h, read-out: MIC in the resistance development study, day 28
[33] = 696 h, read-out: MIC in the resistance development study, day 29
[34] = read-out: MIC in the resistance development study, day 30
[35] = read-out: MIC in the resistance development study, day 31, drugs removed
[36] = read-out: MIC in the resistance development study, day 32, drugs removed
[37] = read-out: MIC in the resistance development study, day 33, drugs removed
[38] = read-out: MIC in the resistance development study, day 34, drugs removed
[39] = read-out: MIC in the resistance development study, day 35, drugs removed

SMILES: C=CC1(C)CC(OC(=O)CSc2nc(C)c(C(=O)OCC)c(C)n2)C2(C)C(C)CCC3(CCC(=O)C32)C(C)C1O (stereo not drawn) [EDT, 14-O-[(5-ethoxycarbonyl-4,6-dimethylpyrimidine-2-yl)thioacetyl] mutilin]
- PAE values, concentration dependence [1]: increased PAE values in a concentration-dependent manner
- PAE values compared with tiamulin ([1]; at four tested concentrations (1×, 2×, 4×, 8× MIC)): extremely significantly higher than that of tiamulin
- increase of MIC ([2]; 30 generations under the subinhibitory concentration (1/4 MIC)): fourfold
- MIC [2, 5]: 0.0313 µg/mL (≈ 0.0546 µM)
- MIC [2, 6]: 0.0313 µg/mL (≈ 0.0546 µM)
- MIC [2, 7]: 0.0313 µg/mL (≈ 0.0546 µM)
- MIC [2, 8]: 0.0313 µg/mL (≈ 0.0546 µM)
- MIC [2, 9]: 0.0313 µg/mL (≈ 0.0546 µM)
- MIC [2, 10]: 0.0313 µg/mL (≈ 0.0546 µM)
- MIC [2, 11]: 0.0313 µg/mL (≈ 0.0546 µM)
- MIC [2, 12]: 0.0313 µg/mL (≈ 0.0546 µM)
- MIC [2, 13]: 0.0313 µg/mL (≈ 0.0546 µM)
- MIC [2, 14]: 0.0313 µg/mL (≈ 0.0546 µM)
- MIC [2, 15]: 0.0313 µg/mL (≈ 0.0546 µM)
- MIC [2, 16]: 0.0625 µg/mL (≈ 0.109 µM)
- MIC [2, 17]: 0.0625 µg/mL (≈ 0.109 µM)
- MIC [2, 18]: 0.0313 µg/mL (≈ 0.0546 µM)
- MIC [2, 19]: 0.0313 µg/mL (≈ 0.0546 µM)
- MIC [2, 20]: 0.0313 µg/mL (≈ 0.0546 µM)
- MIC [2, 21]: 0.0625 µg/mL (≈ 0.109 µM)
- MIC [2, 22]: 0.0625 µg/mL (≈ 0.109 µM)
- MIC [2, 23]: 0.0625 µg/mL (≈ 0.109 µM)
- MIC [2, 24]: 0.125 µg/mL (≈ 0.218 µM)
- MIC [2, 25]: 0.125 µg/mL (≈ 0.218 µM)
- MIC [2, 26]: 0.125 µg/mL (≈ 0.218 µM)
- MIC [2, 27]: 0.125 µg/mL (≈ 0.218 µM)
- MIC [2, 28]: 0.125 µg/mL (≈ 0.218 µM)
- MIC [2, 29]: 0.125 µg/mL (≈ 0.218 µM)
- MIC [2, 30]: 0.125 µg/mL (≈ 0.218 µM)
- MIC [2, 31]: 0.125 µg/mL (≈ 0.218 µM)
- MIC [2, 32]: 0.125 µg/mL (≈ 0.218 µM)
- MIC [2, 33]: 0.125 µg/mL (≈ 0.218 µM)
- MIC ([2]; MRSA-337371, MIC used to set 1×-8× MIC in the PAE test): 0.0313 µg/mL (≈ 0.0546 µM)
- MIC [2, 34]: 0.125 µg/mL (≈ 0.218 µM)
- MIC [2, 35]: 0.125 µg/mL (≈ 0.218 µM)
- MIC [2, 36]: 0.125 µg/mL (≈ 0.218 µM)
- MIC [2, 37]: 0.0625 µg/mL (≈ 0.109 µM)
- MIC [2, 38]: 0.0625 µg/mL (≈ 0.109 µM)
- MIC [2, 39]: 0.0313 µg/mL (≈ 0.0546 µM)
- MIC ([2]; read-out: MIC in the resistance development study, day 36, drugs removed): 0.0313 µg/mL (≈ 0.0546 µM)
- MIC ([2]; read-out: MIC in the resistance development study, day 37, drugs removed): 0.0313 µg/mL (≈ 0.0546 µM)
- MIC ([2]; read-out: MIC in the resistance development study, day 38, drugs removed): 0.0313 µg/mL (≈ 0.0546 µM)
- MIC ([2]; read-out: MIC in the resistance development study, day 39, drugs removed): 0.0313 µg/mL (≈ 0.0546 µM)
- MIC ([2]; read-out: MIC in the resistance development study, day 40, drugs removed): 0.0313 µg/mL (≈ 0.0546 µM)
- sensitivity of MRSA after removing drugs [2]: recovered the initial sensitivity
- increase in the MIC values ([2]; at 22 generations): fourfold
- inhibition of GFP expression (green fluorescence intensity) [3]: effectively inhibited the expression of GFP
- viability at 6 h, 100 µM [4]: 99.7%
- CC50 at 6 h ([4]; HepG2, 200 μM converted to μg/mL): > 115 µg/mL
- viability at 6 h, 200 µM [4]: 77.5%
- CC50 at 6 h ([4]; HepG2, deduced from Fig. 5): > 200 µM

SMILES: C=C[C@]1(C)C[C@@H](OC(=O)CSCCN(CC)CC)[C@]2(C)[C@H](C)CC[C@]3(CCC(=O)[C@H]32)[C@@H](C)[C@@H]1O [tiamulin, Tiamulin fumarate, reference compound]
- PAE values, concentration dependence [1]: increased PAE values in a concentration-dependent manner
- MIC [2, 5]: 0.5 µg/mL
- MIC [2, 6]: 0.5 µg/mL
- MIC [2, 7]: 0.5 µg/mL
- MIC [2, 8]: 0.5 µg/mL
- MIC [2, 9]: 0.5 µg/mL
- MIC [2, 10]: 0.5 µg/mL
- MIC [2, 11]: 1 µg/mL
- MIC [2, 12]: 1 µg/mL
- MIC [2, 13]: 1 µg/mL
- MIC [2, 14]: 1 µg/mL
- MIC [2, 15]: 1 µg/mL
- MIC [2, 16]: 1 µg/mL
- MIC [2, 17]: 1 µg/mL
- MIC [2, 18]: 2 µg/mL
- MIC [2, 19]: 1 µg/mL
- MIC [2, 20]: 2 µg/mL
- MIC [2, 21]: 2 µg/mL
- MIC [2, 22]: 2 µg/mL
- MIC [2, 23]: 2 µg/mL
- MIC [2, 24]: 4 µg/mL
- MIC [2, 25]: 2 µg/mL
- MIC [2, 26]: 4 µg/mL
- MIC [2, 27]: 4 µg/mL
- MIC [2, 28]: 4 µg/mL
- MIC [2, 29]: 4 µg/mL
- MIC [2, 30]: 4 µg/mL
- MIC [2, 31]: 4 µg/mL
- MIC [2, 32]: 4 µg/mL
- MIC [2, 33]: 4 µg/mL
- MIC [2, 34]: 4 µg/mL
- MIC [2, 35]: 4 µg/mL
- MIC [2, 36]: 4 µg/mL
- MIC [2, 37]: 2 µg/mL
- MIC [2, 38]: 2 µg/mL
- MIC [2, 39]: 2 µg/mL
- increase in the MIC values ([2]; after 7 generations of continuous culture of MRSA): twofold
- sensitivity of MRSA after removing drugs [2]: recovered the initial sensitivity
- increase in the MIC values ([2]; at 22 generations): eightfold
- inhibition of GFP expression (green fluorescence intensity) [3]: inhibited GFP expression
- viability at 6 h, 100 µM [4]: 60.8%
- viability at 6 h, 200 µM [4]: 55.6%

From paper PMC10502144, “Anti-methicillin-resistant Staphylococcus aureus activity and safety evaluation of 14-O-[(5-ethoxycarbonyl-4,6-dimethylpyrimidine-2-yl) thioacetyl] mutilin (EDT)” (Scientific Reports, 2023)
